Experimental data as given in the supplement of paper PMC10331698.
± gives the standard deviation of the averaged measurements.

Legend:
Experiment in all cases: level (log10 ratio to DMSO vehicle control); higher = higher biomarker level / cell amount than vehicle control
[1] = compound: C=CC(=O)OCCC(F)(F)C(F)(F)C(F)(F)C(F)(F)C(F)(F)C(F)(F)C(F)(F)C(F)(F)F [8:2 Fluorotelomer acrylate]; settings: in DMSO
Description: (§1)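 BioMAP Diversity Plus panel of 12 human primary cell co-culture systems (3C, 4H, LPS, SAg, BT, BF4T, BE3C, CASM3C, HDF3CGF, KF3CT, MyoF, Mphg). Compounds were added 1 h before stimulation and left for 24 h (MyoF 48 h; BT 72 h for soluble read-outs or 6 d for IgG). Biomarkers were read by ELISA, cytotoxicity by SRB, PBMC viability and proliferation by Alamar Blue. Each well value was divided by the mean of 8 DMSO control wells on the same plate and log10 transformed; duplicate blinded samples were tested at 4 concentrations.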

[2] = compound: O=C(O)C(F)(F)C(F)(F)C(=O)O [Tetrafluorosuccinic acid]; settings: in DMSO
Description: as §1

[3] = compound: O=C(O)C(F)(F)C(F)(F)C(F)(F)C(F)(F)C(F)(F)C(F)(F)C(F)(F)F [Ammonium perfluorooctanoate]; settings: in DMSO
Description: as §1

[4] = compound: O=C(O)C(F)(F)C(F)(F)C(F)(F)C(F)(F)C(F)(F)C(F)(F)C(F)(F)F [Perfluorooctanoic acid]; settings: in DMSO
Description: as §1

[5] = compound: O=S(=O)(OCC(F)(F)F)C(F)(F)C(F)(F)C(F)(F)C(F)(F)F [2,2,2-Trifluoroethyl perfluorobutanesulfonate]; settings: in DMSO
Description: as §1

[6] = compound: OCC(F)(F)C(F)(F)C(F)(F)C(F)(F)C(F)(F)C(F)(F)C(F)(F)C(F)(F)C(F)(F)C(F)(F)C(F)(F)F [11:1 Fluorotelomer alcohol]; settings: in DMSO
Description: as §1

[7] = compound: OCCC(F)(F)C(F)(F)C(F)(F)C(F)(F)C(F)(F)C(F)(F)C(F)(F)C(F)(F)F [8:2 Fluorotelomer alcohol]; settings: 6700 nM; in DMSO
Description: as §1

Row | Test System | level (log10) ([1]; 6700 nM) | level (log10) ([1]; 20000 nM) | level (log10) ([1]; 60000 nM) | level (log10) ([2]; 6700 nM) | level (log10) ([2]; 20000 nM) | level (log10) ([2]; 60000 nM) | level (log10) ([3]; 6700 nM) | level (log10) ([3]; 20000 nM) | level (log10) ([3]; 60000 nM) | level (log10) ([4]; 6700 nM) | level (log10) ([4]; 20000 nM) | level (log10) ([4]; 60000 nM) | level (log10) ([5]; 6700 nM) | level (log10) ([5]; 20000 nM) | level (log10) ([5]; 60000 nM) | level (log10) ([6]; 1100 nM) | level (log10) ([6]; 3300 nM) | level (log10) ([6]; 10000 nM) | level (log10) [7]
1 | CASM3C:PAI-I | -0.0045 ± 0.0021 | -0.008 ± 0.0099 | 0.005 ± 0.017 | 0.0025 ± 0.0021 | 0.009 ± 0.0042 | 0.0105 ± 0.0035 | 0.0005 ± 0.00071 | -0.001 ± 0.0028 | 0.0085 ± 0.0078 | 0.003 ± 0.0085 | -0.0005 ± 0.012 | 0.01 ± 0.018 | -0.0075 ± 0.0092 | 0.0015 ± 0.00071 | 0.0035 ± 0.0021 | -0.001 ± 0.0071 | -0.0055 ± 0.005 | -0.0005 ± 0.015 | -0.0035 ± 0.011
2 | KF3CT:MMP-9 | -0.042 | -0.0885 ± 0.044 | -0.132 ± 0.047 | -0.0305 ± 0.018 | -0.024 ± 0.031 | -0.0085 ± 0.035 | 0.0045 ± 0.018 | 0.017 ± 0.0099 | 0.0105 ± 0.023 | -0.0225 ± 0.026 | 0.003 ± 0.0099 | 0.028 ± 0.011 | -0.012 ± 0.017 | -0.016 ± 0.035 | -0.001 ± 0.025 | -0.042 ± 0.0099 | -0.071 ± 0.027 | -0.0545 ± 0.026 | -0.09 ± 0.027
3 | BE3C:SRB | -0.0045 ± 0.0021 | -0.0045 ± 0.0064 | 0.006 ± 0.018 | -0.0045 ± 0.005 | -0.0045 ± 0.0064 | -0.001 ± 0.0028 | -0.0045 ± 0.005 | -0.003 | -0.0145 ± 0.0078 | -0.0065 ± 0.00071 | -0.0025 ± 0.0021 | -0.014 ± 0.0099 | 0 ± 0.0071 | 0.004 ± 0.0042 | 0.005 | -0.03 ± 0.014 | -0.0485 ± 0.005 | -0.0235 ± 0.0064 | -0.0075 ± 0.0021
4 | KF3CT:CXCL10/IP-10 | -0.007 ± 0.0057 | -0.0125 ± 0.0021 | -0.0135 ± 0.00071 | -0.006 ± 0.0028 | -0.0055 ± 0.0064 | -0.0075 ± 0.00071 | -0.0025 ± 0.00071 | -0.0045 ± 0.005 | -0.007 ± 0.0014 | -0.006 ± 0.0042 | -0.01 ± 0.0042 | -0.0275 ± 0.0064 | 0.0345 ± 0.022 | 0.033 ± 0.041 | 0.031 ± 0.042 | 0.003 ± 0.0042 | -0.002 ± 0.0057 | 0.0085 ± 0.0035 | -0.0355 ± 0.018
5 | HDF3CGF:CD54/ICAM-1 | 0.034 ± 0.04 | 0.044 ± 0.059 | 0.0395 ± 0.088 | -0.0055 ± 0.03 | -0.006 ± 0.0071 | -0.0105 ± 0.016 | -0.0145 ± 0.015 | -0.043 ± 0.0057 | -0.054 ± 0.016 | 0.005 ± 0.0057 | 0.0055 ± 0.011 | -0.0035 ± 0.005 | -0.0105 ± 0.018 | -0.0025 ± 0.022 | -0.0285 ± 0.028 | 0.001 ± 0.0071 | -0.0075 ± 0.021 | -0.012 ± 0.0014 | 0.0315 ± 0.035
6 | MyoF:bFGF | -0.015 ± 0.0028 | -0.015 ± 0.014 | -0.0025 ± 0.0092 | 0.0005 ± 0.0021 | 0.0095 ± 0.0078 | -0.0045 ± 0.029 | 0 ± 0.013 | -0.007 ± 0.014 | 0.0015 ± 0.015 | -0.023 ± 0.0057 | -0.0275 ± 0.0035 | -0.0085 ± 0.03 | -0.015 ± 0.0042 | -0.0015 ± 0.03 | -0.0195 ± 0.00071 | 0.002 ± 0.0071 | 0.008 ± 0.014 | 0.004 ± 0.021 | 0.002 ± 0.018
7 | lMphg:CD106/VCAM-1 | 0 ± 0.013 | -0.015 ± 0.0014 | -0.0045 ± 0.03 | -0.017 ± 0.0028 | 0.0085 ± 0.0021 | 0.018 ± 0.03 | 0.0135 ± 0.0035 | 0.023 ± 0.0014 | -0.0105 ± 0.0021 | 0.0065 ± 0.0078 | 0.0065 ± 0.011 | 0.0025 ± 0.0092 | -0.0355 ± 0.015 | -0.0215 ± 0.028 | -0.055 ± 0.024 | 0.0045 ± 0.005 | -0.001 ± 0.0014 | -0.0015 ± 0.0035 | 0.0055 ± 0.012
8 | BE3C:MMP-1 | -0.015 ± 0.0085 | -0.013 ± 0.023 | 0.0365 ± 0.08 | -0.0025 ± 0.011 | -0.0125 ± 0.0078 | 0.032 ± 0.038 | 0.034 ± 0.018 | 0.113 ± 0.014 | 0.283 ± 0.041 | -0.0085 ± 0.012 | 0.044 | 0.226 ± 0.035 | 0.01 ± 0.031 | 0.0165 ± 0.00071 | 0.0165 ± 0.00071 | -0.0275 ± 0.018 | -0.0685 ± 0.015 | -0.077 | 0.0275 ± 0.021
9 | KF3CT:PAI-I | -0.009 ± 0.014 | 0.0155 ± 0.012 | 0.001 ± 0.0085 | -0.0465 ± 0.037 | -0.0005 ± 0.0021 | 0 ± 0.0014 | -0.0015 ± 0.0021 | -0.018 ± 0.0099 | -0.01 ± 0.0099 | 0.0005 ± 0.021 | -0.015 ± 0.02 | -0.079 ± 0.0028 | 0.0005 ± 0.028 | 0.003 ± 0.033 | 0.0265 ± 0.018 | -0.002 ± 0.0071 | -0.0055 ± 0.012 | 0.001 ± 0.023 | -0.0255 ± 0.018
10 | MyoF:PAI-I | -0.0055 ± 0.018 | -0.0105 ± 0.015 | -0.0355 ± 0.015 | 0.009 ± 0.0057 | 0.01 ± 0.017 | 0.004 ± 0.014 | 0.0095 ± 0.015 | 0.0035 ± 0.013 | 0.027 ± 0.011 | -0.0225 ± 0.011 | -0.023 ± 0.024 | -0.0305 ± 0.029 | -0.0115 ± 0.0092 | -0.011 ± 0.018 | -0.0065 ± 0.018 | 0.009 ± 0.0042 | 0.014 ± 0.013 | 0.0205 ± 0.0064 | -0.004 ± 0.018
11 | 3C:CD141/Thrombomodulin | -0.0015 ± 0.036 | -0.0295 ± 0.0035 | 0.023 ± 0.072 | -0.0285 ± 0.039 | -0.048 ± 0.024 | -0.038 ± 0.0085 | -0.01 ± 0.017 | -0.0185 ± 0.012 | -0.0375 ± 0.032 | 0.023 ± 0.065 | -0.011 ± 0.081 | -0.0115 ± 0.039 | -0.024 ± 0.018 | -0.041 ± 0.028 | -0.051 ± 0.016 | 0.0225 ± 0.021 | 0.0705 ± 0.00071 | 0.09 ± 0.02 | 0.044 ± 0.0057
12 | lMphg:CD69 | -0.054 ± 0.017 | -0.0565 ± 0.023 | 0.002 ± 0.079 | -0.048 ± 0.021 | 0.0125 ± 0.047 | 0.059 ± 0.073 | -0.0285 ± 0.018 | -0.0185 ± 0.028 | -0.0715 ± 0.0064 | -0.048 ± 0.028 | -0.0655 ± 0.05 | -0.033 ± 0.11 | -0.016 ± 0.033 | -0.0355 ± 0.0021 | -0.079 ± 0.028 | -0.038 ± 0.017 | -0.103 ± 0.028 | -0.0685 ± 0.0078 | -0.086 ± 0.035
13 | MyoF:TIMP-1 | -0.0615 ± 0.011 | -0.039 ± 0.025 | -0.014 ± 0.0042 | -0.0045 ± 0.022 | -0.0215 ± 0.04 | -0.026 ± 0.069 | 0.004 ± 0.0085 | 0.012 ± 0.02 | 0.01 ± 0.033 | -0.0245 ± 0.005 | 0.0185 ± 0.0078 | 0.089 ± 0.013 | -0.0305 ± 0.042 | -0.0235 ± 0.011 | -0.056 ± 0.0099 | 0.0095 ± 0.05 | 0.015 ± 0.048 | 0.011 ± 0.02 | -0.0435 ± 0.025
14 | HDF3CGF:Proliferation 72hr | -0.011 ± 0.0099 | -0.026 ± 0.044 | -0.154 ± 0.076 | -0.08 ± 0.076 | -0.135 ± 0.061 | -0.0935 ± 0.069 | 0.058 ± 0.065 | 0.124 ± 0.018 | 0.119 ± 0.021 | 0.06 ± 0.041 | 0.15 ± 0.005 | 0.0875 ± 0.0078 | -0.046 | -0.0425 ± 0.029 | -0.1 ± 0.047 | -0.015 ± 0.065 | 0 ± 0.0099 | 0.021 ± 0.02 | -0.374 ± 0.26
15 | CASM3C:Serum Amyloid A | -0.0075 ± 0.013 | -0.0125 ± 0.022 | 0.018 ± 0.028 | 0.011 ± 0.011 | 0.017 ± 0.018 | 0.025 ± 0.037 | 0.0345 ± 0.022 | 0.015 ± 0.0057 | 0.0345 ± 0.012 | -0.002 ± 0.013 | 0.006 ± 0.051 | 0.022 ± 0.038 | -0.0625 ± 0.077 | -0.0375 ± 0.052 | 0.006 ± 0.031 | -0.0025 ± 0.044 | -0.0045 ± 0.0078 | 0.0045 ± 0.016 | 0.0015 ± 0.016
